Source: patent US20060083680A1, “Diphenyl ether derivatives and their use for imaging serotonin transporters” (The Trustees of the University of Pennsylvania, priority 2004, published 2006)
“And” between values parts separate entries of the source, which are not always exact repeats. Equal entries are not always repeated. “Also recorded” adds a separate entry of the source.

What was measured:
[1] = Biodistribution in rats after iv injection (organs); assay type: in vivo; settings: iv, 24 hrs
Protocol: Biodistribution in rats: Three rats per group were used for each biodistribution study. While under ether anesthesia, 0.2 mL of a saline solution containing 10 μCi of radioactive tracer was injected into the femoral vein. The rats were sacrificed at the time indicated by cardiac excision while under ether anesthesia. Organs of interest were removed and weighed, and the radioactivity was counted. The percent dose per organ was calculated by a comparison of the tissue counts to counts of 1% of the initial dose (100 times diluted aliquots of the injected material) measured at the same time.

SERT binding sites = target: T1, SERT binding sites (Rattus norvegicus, UniProt P31652); test: Ex vivo autoradiography of rat brain sections; assay type: in vivo, rats; settings: rats, ex vivo after i.v. injection
T1 construct: from tissue; host or cells: rat brain in vivo (hypothalamus, cortex, striatum, hippocampus, cerebellum); ex vivo brain sections

[2] = Stability of the radioactive material; settings: refrigerator
serotonin transporters = target: T2, serotonin transporters (Rattus norvegicus, UniProt P31652); test: Regional brain distribution and specific binding ratio in rats; assay type: in vivo; settings: for Ratio of (Region-Cerebellum)/Cerebellum, CX / Ratio of (Region-Cerebellum)/Cerebellum, HP / Ratio of (Region-Cerebellum)/Cerebellum, HY / Ratio of (Region-Cerebellum)/Cerebellum, ST / Regional brain distribution CB (cerebellum) / Regional brain distribution CX (cortex) / Regional brain distribution HP (hippocampus) / Regional brain distribution HY (hypothalamus) / Regional brain distribution ST (striatum): iv
T2 construct: from tissue; host or cells: rat brain in vivo (hypothalamus, cortex, striatum, hippocampus, cerebellum); ex vivo brain sections
Protocol: Regional brain distribution in rats was measured after an i.v. injection of the radioactive tracer. Samples from different brain regions: cortex (frontal plus occipital), striatum, hippocampus, cerebellum and hypothalamus were dissected, weighed and counted. The percentage dose/g of each sample was calculated by comparing sample counts with the counts of the diluted initial dose described above. The specific binding ratio in each region was obtained by dividing the % dose/gram values between region by that in the cerebellum ([region-cerebellum/cerebellum]). The cerebellum region containing little or no serotonin transporters was used as the background region.

T2 sequence (P31652 whole entry): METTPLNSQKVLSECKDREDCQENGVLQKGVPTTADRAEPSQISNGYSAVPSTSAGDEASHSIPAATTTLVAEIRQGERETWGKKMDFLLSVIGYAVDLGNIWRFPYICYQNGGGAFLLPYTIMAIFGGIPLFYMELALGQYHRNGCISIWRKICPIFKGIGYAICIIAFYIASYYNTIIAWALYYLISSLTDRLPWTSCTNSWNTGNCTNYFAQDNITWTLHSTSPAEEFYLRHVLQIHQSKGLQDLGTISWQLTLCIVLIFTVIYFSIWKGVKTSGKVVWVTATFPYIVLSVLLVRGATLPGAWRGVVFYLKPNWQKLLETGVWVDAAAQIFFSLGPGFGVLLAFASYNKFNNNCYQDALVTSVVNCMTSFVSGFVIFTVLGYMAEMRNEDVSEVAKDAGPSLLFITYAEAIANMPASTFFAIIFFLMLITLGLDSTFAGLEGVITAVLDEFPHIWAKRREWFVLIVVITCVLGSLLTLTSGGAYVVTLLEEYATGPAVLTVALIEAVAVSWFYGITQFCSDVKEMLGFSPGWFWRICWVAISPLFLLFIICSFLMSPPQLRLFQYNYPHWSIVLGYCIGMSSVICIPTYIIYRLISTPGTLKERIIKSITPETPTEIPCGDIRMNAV
T1 sequence (P31652 whole entry): as above

Question: For `CN(C)Cc1ccccc1Oc1ccc([125I])cc1N` [[^125I]4, [^125I][^123I]2-(2-(Dimethylaminomethyl)phenoxy)-5-iodophenylamine], which “Biodistribution Lung” value [1] is on record?
Answer: 0.04 ± 0.00 % dose/organ

Question: And the “Biodistribution Muscle” value [1]?
Answer: 1.13 ± 0.13 % dose/organ

Question: What about the “Biodistribution Skin” value [1] of the same compound?
Answer: 4.02 ± 0.26 % dose/organ

Question: What about the “Biodistribution Spleen” value [1] of the same compound?
Answer: 0.05 ± 0.01 % dose/organ

Question: What about the “Biodistribution Thyroid” value [1] of the same compound?
Answer: 4.61 ± 1.21 % dose/organ

Question: What about the “regional distribution pattern in brain” value (SERT binding sites) of the same compound?
Answer: distinctive distribution pattern in the brain, which reflected regional distribution of SERT binding sites; also recorded: excellent regional distribution pattern consistent with known SERT localization

Question: And the “stability in a refrigerator” value [2]?
Answer: stable in a refrigerator for at least three weeks

Question: What about the “hypothalamus uptake compared to other radioiodinated compounds” value (serotonin transporters; 60-240 min post i.v. injection) of the same compound?
Answer: highest uptake in hypothalamus

Question: What about the “Ratio of (Region-Cerebellum)/Cerebellum, CX” value (shortened to “Ratio … CX”) (serotonin transporters; 2 min) of the same compound?
Answer: 0.56 ± 0.55

Question: What about the “Ratio of (Region-Cerebellum)/Cerebellum, HP” value (from here on “Ratio … HP”) (serotonin transporters; 2 min) of the same compound?
Answer: 0.13 ± 0.22

Question: What about the “Ratio of (Region-Cerebellum)/Cerebellum, HY” value (“Ratio … HY” for short) (serotonin transporters; 2 min) of the same compound?
Answer: 0.24 ± 0.17

Question: What about the “Ratio of (Region-Cerebellum)/Cerebellum, ST” value (shortened to “Ratio … ST”) (serotonin transporters; 2 min) of the same compound?
Answer: 0.01 ± 0.27

Question: And the “Regional brain distribution CB (cerebellum)” value (from here on “Regional brain distribution CB”) (serotonin transporters; 2 min)?
Answer: 0.79 ± 0.21 % dose/g

Question: What about the “Regional brain distribution CX (cortex)” value (serotonin transporters; 2 min) of the same compound?
Answer: 1.16 ± 0.14 % dose/g

Question: And the “Regional brain distribution HP (hippocampus)” value (shortened to “Regional brain distribution HP”) (serotonin transporters; 2 min)?
Answer: 0.86 ± 0.07 % dose/g

Question: And the “Regional brain distribution HY (hypothalamus)” value (“Regional brain distribution HY” for short) (serotonin transporters; 2 min)?
Answer: 0.96 ± 0.15 % dose/g

Question: What about the “Regional brain distribution ST (striatum)” value (serotonin transporters; 2 min) of the same compound?
Answer: 0.77 ± 0.04 % dose/g

Question: What about the “Ratio … CX” value (serotonin transporters; 30 min) of the same compound?
Answer: 0.96 ± 0.14

Question: What about the “Ratio … HP” value (serotonin transporters; 30 min) of the same compound?
Answer: 0.68 ± 0.22

Question: What about the “Ratio … HY” value (serotonin transporters; 30 min) of the same compound?
Answer: 1.06 ± 0.22

Question: What about the “Ratio … ST” value (serotonin transporters; 30 min) of the same compound?
Answer: 0.83 ± 0.23

Question: What about the “Regional brain distribution CB” value (serotonin transporters; 30 min) of the same compound?
Answer: 0.64 ± 0.09 % dose/g

Question: And the “Regional brain distribution CX (cortex)” value (serotonin transporters; 30 min)?
Answer: 1.25 ± 0.13 % dose/g

Question: And the “Regional brain distribution HP” value (serotonin transporters; 30 min)?
Answer: 1.06 ± 0.12 % dose/g

Question: What about the “Regional brain distribution HY” value (serotonin transporters; 30 min) of the same compound?
Answer: 1.30 ± 0.06 % dose/g

Question: And the “Regional brain distribution ST (striatum)” value (serotonin transporters; 30 min)?
Answer: 1.16 ± 0.10 % dose/g

Question: And the “Ratio … CX” value (serotonin transporters; 60 min)?
Answer: 1.35 ± 0.07

Question: What about the “Ratio … HP” value (serotonin transporters; 60 min) of the same compound?
Answer: 1.30 ± 0.05

Question: And the “Ratio … HY” value (serotonin transporters; 60 min)?
Answer: 1.92 and 1.92 ± 0.20

Question: What about the “Ratio … ST” value (serotonin transporters; 60 min) of the same compound?
Answer: 1.51 ± 0.12

Question: What about the “Regional brain distribution CB” value (serotonin transporters; 60 min) of the same compound?
Answer: 0.41 ± 0.03 % dose/g

Question: What about the “Regional brain distribution CX (cortex)” value (serotonin transporters; 60 min) of the same compound?
Answer: 0.95 ± 0.07 % dose/g

Question: What about the “Regional brain distribution HP” value (serotonin transporters; 60 min) of the same compound?
Answer: 0.94 ± 0.08 % dose/g

Question: What about the “Regional brain distribution HY” value (serotonin transporters; 60 min) of the same compound?
Answer: 1.18 ± 0.08 % dose/g

Question: And the “Regional brain distribution ST (striatum)” value (serotonin transporters; 60 min)?
Answer: 1.02 ± 0.11 % dose/g

Question: And the “Ratio … CX” value (serotonin transporters; 120 min)?
Answer: 1.48 ± 0.13

Question: What about the “Ratio … HP” value (serotonin transporters; 120 min) of the same compound?
Answer: 2.19 ± 0.07

Question: And the “Ratio … HY” value (serotonin transporters; 120 min)?
Answer: 3.49 and 3.49 ± 0.09

Question: What about the “Ratio … ST” value (serotonin transporters; 120 min) of the same compound?
Answer: 2.53 ± 0.17

Question: And the “Regional brain distribution CB” value (serotonin transporters; 120 min)?
Answer: 0.21 ± 0.01 % dose/g

Question: And the “Regional brain distribution CX (cortex)” value (serotonin transporters; 120 min)?
Answer: 0.51 ± 0.04 % dose/g

Question: And the “Regional brain distribution HP” value (serotonin transporters; 120 min)?
Answer: 0.65 ± 0.04 % dose/g

Question: What about the “Regional brain distribution HY” value (serotonin transporters; 120 min) of the same compound?
Answer: 0.92 ± 0.06 % dose/g

Question: And the “Regional brain distribution ST (striatum)” value (serotonin transporters; 120 min)?
Answer: 0.72 ± 0.01 % dose/g

Question: What about the “Ratio … CX” value (serotonin transporters; 240 min) of the same compound?
Answer: 1.12 ± 0.17

Question: What about the “Ratio … HP” value (serotonin transporters; 240 min) of the same compound?
Answer: 2.47 ± 0.28

Question: And the “Ratio … HY” value (serotonin transporters; 240 min)?
Answer: 4.49 and 4.3 and 4.49 ± 0.12

Question: What about the “Ratio … ST” value (serotonin transporters; 240 min) of the same compound?
Answer: 3.11 ± 0.35

Question: And the “Regional brain distribution CB” value (serotonin transporters; 240 min)?
Answer: 0.06 ± 0.00 % dose/g

Question: What about the “Regional brain distribution CX (cortex)” value (serotonin transporters; 240 min) of the same compound?
Answer: 0.12 ± 0.01 % dose/g

Question: What about the “Regional brain distribution HP” value (serotonin transporters; 240 min) of the same compound?
Answer: 0.20 ± 0.02 % dose/g

Question: And the “Regional brain distribution HY” value (serotonin transporters; 240 min)?
Answer: 0.32 ± 0.03 % dose/g

Question: And the “Regional brain distribution ST (striatum)” value (serotonin transporters; 240 min)?
Answer: 0.24 ± 0.02 % dose/g

Question: And the “Ratio … CX” value (serotonin transporters; 6 hrs)?
Answer: 0.58 ± 0.09

Question: And the “Ratio … HP” value (serotonin transporters; 6 hrs)?
Answer: 1.21 ± 0.11

Question: What about the “Ratio … HY” value (serotonin transporters; 6 hrs) of the same compound?
Answer: 2.64 and 2.64 ± 0.54

Question: What about the “Ratio … ST” value (serotonin transporters; 6 hrs) of the same compound?
Answer: 1.56 ± 0.41

Question: And the “Regional brain distribution CB” value (serotonin transporters; 6 hrs)?
Answer: 0.027 ± 0.002 % dose/g

Question: What about the “Regional brain distribution CX (cortex)” value (serotonin transporters; 6 hrs) of the same compound?
Answer: 0.042 ± 0.002 % dose/g

Question: And the “Regional brain distribution HP” value (serotonin transporters; 6 hrs)?
Answer: 0.059 ± 0.005 % dose/g

Question: What about the “Regional brain distribution HY” value (serotonin transporters; 6 hrs) of the same compound?
Answer: 0.097 ± 0.015 % dose/g

Question: And the “Regional brain distribution ST (striatum)” value (serotonin transporters; 6 hrs)?
Answer: 0.068 ± 0.005 % dose/g

Question: What about the “Ratio … CX” value (serotonin transporters; 11 hrs) of the same compound?
Answer: 0.00 ± 0.16

Question: And the “Ratio … HP” value (serotonin transporters; 11 hrs)?
Answer: 0.09 ± 0.08

Question: And the “Ratio … HY” value (serotonin transporters; 11 hrs)?
Answer: 0.44 ± 0.19

Question: What about the “Ratio … ST” value (serotonin transporters; 11 hrs) of the same compound?
Answer: 0.14 ± 0.13

Question: And the “Regional brain distribution CB” value (serotonin transporters; 11 hrs)?
Answer: 0.011 ± 0.0013 % dose/g

Question: And the “Regional brain distribution CX (cortex)” value (serotonin transporters; 11 hrs)?
Answer: 0.010 ± 0.0010 % dose/g

Question: And the “Regional brain distribution HP” value (serotonin transporters; 11 hrs)?
Answer: 0.012 ± 0.0021 % dose/g

Question: What about the “Regional brain distribution HY” value (serotonin transporters; 11 hrs) of the same compound?
Answer: 0.016 ± 0.0025 % dose/g

Question: What about the “Regional brain distribution ST (striatum)” value (serotonin transporters; 11 hrs) of the same compound?
Answer: 0.012 ± 0.0000 % dose/g

Question: What about the “Ratio … HY” value (serotonin transporters; 24 hrs) of the same compound?
Answer: 0.23 ± 0.15

Question: What about the “Regional brain distribution CB” value (serotonin transporters; 24 hrs) of the same compound?
Answer: 0.0049 ± 0.0009 % dose/g

Question: What about the “Regional brain distribution CX (cortex)” value (serotonin transporters; 24 hrs) of the same compound?
Answer: 0.0040 ± 0.0007 % dose/g

Question: What about the “Regional brain distribution HP” value (serotonin transporters; 24 hrs) of the same compound?
Answer: 0.0040 ± 0.0005 % dose/g

Question: And the “Regional brain distribution HY” value (serotonin transporters; 24 hrs)?
Answer: 0.0060 ± 0.0010 % dose/g

Question: What about the “Regional brain distribution ST (striatum)” value (serotonin transporters; 24 hrs) of the same compound?
Answer: 0.0039 ± 0.0004 % dose/g
